Earlier results on 1 molecule are cited in patent publication US20120015899A1 (priority 2008, published 2012).

Structures are written as SMILES.

Broadly, the pKa is the negative logarithm of the acid dissociation constant.

With `Cl.Nc1ccn([C@@H]2O[C@H](CO)[C@@H](O)C2(F)F)c(=O)n1` [Gemcitabine, Cytidine, 2′-deoxy-2′,2′-difluoro-, monohydrochloride], the pKa is reported as 3.58.
